Experimental data: patent US8183262B2, “Pyridine derivatives as mGluR2 antagonists” (Hoffmann-La Roche Inc., priority 2007, dated 2012)

Row | melting point | SMILES
1 | 192 °C | NS(=O)(=O)c1ccc(-c2cccc(-c3nc(-c4ccc(C(F)(F)F)cc4F)cc(C(F)(F)F)n3)c2)s1 [Example 413, 5-{3-[4-(2-Fluoro-4-trifluoromethyl-phenyl)-6-trifluoromethyl-pyrimidin-2-yl]-phenyl}-thiophene-2-sulfonic acid amide]
2 | 110 °C (dec.) | Cc1cc(-c2ccc(C(F)(F)F)cc2)cc(-c2cccc(-c3cccc(S(=O)(=O)NCCO)c3)n2)n1 [Example 359, N-(2-Hydroxy-ethyl)-3-[6′-methyl-4′-(4-trifluoromethyl-phenyl)-[2,2′]bipyridinyl-6-yl]-benzenesulfonamide]
3 | 216 °C | Cc1cc(-c2ccc(C(F)(F)F)cc2)cc(-c2cccc(-c3cccc(S(=O)(=O)N4CCOCC4)c3)n2)n1 [Example 373, 6-Methyl-6′-[3-(morpholine-4-sulfonyl)-phenyl]-4-(4-trifluoromethyl-phenyl)-[2,2′]bipyridinyl]
4 | 202.5 °C | O=S(=O)(NCc1ccccc1)c1cccc(-c2cc(-c3nc(-c4ccc(C(F)(F)F)cc4)cc(C(F)(F)F)n3)ccn2)c1 [Example 405, N-Benzyl-3-{4-[4-trifluoromethyl-6-(4-trifluoromethyl-phenyl)-pyrimidin-2-yl]-pyridin-2-yl}-benzenesulfonamide]

The remaining lines, values behind:

Row | SMILES | melting point
5 | FC(F)c1cc(-c2ccc(C(F)(F)F)cc2)nc(-c2ccncc2)n1 [Example 38, 4-Difluoromethyl-2-pyridin-4-yl-6-(4-trifluoromethyl-phenyl)-pyrimidine] | 132.5 °C
6 | NS(=O)(=O)c1cnc(-c2cn(-c3nc(-c4ccc(Cl)cc4)cc(C(F)(F)F)n3)cn2)s1 [Example 182, 2-{1-[4-(4-Chloro-phenyl)-6-trifluoromethyl-pyrimidin-2-yl]-1H-imidazol-4-yl}-thiazole-5-sulfonic acid amide] | 263 °C
7 | NS(=O)(=O)c1cccc(-c2noc(-c3nc(-c4ccc(C(F)(F)F)cc4)cc(C(F)(F)F)n3)n2)c1 [Example 16, 3-{5-[4-Trifluoromethyl-6-(4-trifluoromethyl-phenyl)-pyrimidin-2-yl]-[1,2,4]oxadiazol-3-yl}-benzenesulfonamide] | 204 °C
8 | Nc1ccc(-c2noc(-c3nc(-c4ccc(Cl)c(Cl)c4)cc(C(F)(F)F)n3)n2)cn1 [Example 100, 5-{5-[4-(3,4-Dichloro-phenyl)-6-trifluoromethyl-pyrimidin-2-yl]-[1,2,4]oxadiazol-3-yl}-pyridin-2-ylamine] | 227 °C
9 | Cc1cc(-c2ccc(C(F)(F)F)cc2)cc(-c2nc(-c3ccc(S(=O)(=O)NC(C)(C)C)s3)cs2)n1 [Example 324, 5-{2-[6-Methyl-4-(4-trifluoromethyl-phenyl)-pyridin-2-yl]-thiazol-4-yl}-thiophene-2-sulfonic acid tert-butylamide] | 171 °C
10 | CC(C)(C)NS(=O)(=O)c1cnc(-c2cn(-c3cc(-c4ccc(C(F)(F)F)cc4)cc(C(F)(F)F)n3)cn2)s1 [Example 302, 2-{1-[6-Trifluoromethyl-4-(4-trifluoromethyl-phenyl)-pyridin-2-yl]-1H-imidazol-4-yl}-thiazole-5-sulfonic acid tert-butylamide] | 252 °C
11 | Cc1cc(-c2ccc(Cl)cc2)cc(-c2cccc(-c3ccc(N)nc3)c2)n1 [Example 229, 5-{3-[4-(4-Chloro-phenyl)-6-methyl-pyridin-2-yl]-phenyl}-pyridin-2-ylamine] | 76 to 95 °C
12 | CC(C)(C)NS(=O)(=O)c1ccc(-c2cc(-c3cc(C(F)(F)F)cc(-c4ccc(C(F)(F)F)cc4)n3)ccn2)s1 [Example 319, 5-[4-Trifluoromethyl-6-(4-trifluoromethyl-phenyl)-[2,4′]bipyridinyl-2′-yl]-thiophene-2-sulfonic acid tert-butylamide] | 220 °C
13 | NS(=O)(=O)c1ccc(-c2cc(-c3nc(-c4ccc(Cl)cc4)cc(C(F)(F)F)n3)ccn2)s1 [Example 170, 5-{4-[4-(4-Chloro-phenyl)-6-trifluoromethyl-pyrimidin-2-yl]-pyridin-2-yl}-thiophene-2-sulfonic acid amide] | 290 °C
